According to US20250034170A1, “SMALL MOLECULE MODULATORS OF GLUCOCEREBROSIDASE ACTIVITY AND USES THEREOF” (Vanqua Bio, Inc., priority 2021, published 2025):

The compounds below were run against T1, GCase (Homo sapiens, UniProt P04062) (assay: activation of GCase in a live cell PFB assay in HELA cells). Settings: EC50 given as range classes.
T1 construct: endogenous in cells; host or cells: HeLa cells
T1 sequence (P04062 40-536): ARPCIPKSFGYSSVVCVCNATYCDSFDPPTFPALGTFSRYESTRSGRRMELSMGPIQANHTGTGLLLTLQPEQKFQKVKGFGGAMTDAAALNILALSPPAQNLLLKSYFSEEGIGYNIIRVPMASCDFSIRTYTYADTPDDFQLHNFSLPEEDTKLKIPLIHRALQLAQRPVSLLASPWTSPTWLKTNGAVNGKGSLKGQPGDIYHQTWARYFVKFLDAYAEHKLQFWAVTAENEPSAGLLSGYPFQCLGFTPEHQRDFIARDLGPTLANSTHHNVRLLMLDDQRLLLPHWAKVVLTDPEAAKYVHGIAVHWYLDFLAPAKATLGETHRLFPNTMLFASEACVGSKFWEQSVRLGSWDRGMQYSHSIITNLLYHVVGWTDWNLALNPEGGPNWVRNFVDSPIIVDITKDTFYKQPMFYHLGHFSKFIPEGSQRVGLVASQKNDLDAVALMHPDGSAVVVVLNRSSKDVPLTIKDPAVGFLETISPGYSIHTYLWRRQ
Assay type: cell-based
Protocol: Exemplary compounds were evaluated for activation of GCase in a live cell PFB assay in HELA cells (essentially as described in Ysselstein et al., “LRRK2 kinase activity regulates lysosomal glucocerebrosidase in neurons derived from Parkinson's disease patients” Nature Communications (2019) 10:5570). […] EC50 ranges: A: <10 μM; B: >10-50 μM; C: >50-100 μM; D: >100 μM.

| Compound | EC50 [µM] |
| --- | --- |
| Cn1c(N2CCC3(CCN(c4cnc(C(F)(F)F)nc4)C3)CC2)nc2c(cnn2CC(F)(F)F)c1=O [Cmpd 1016] | < 10 |
| Cc1ncc(N2CC3(CCN(c4ncc5cnn(CC(F)(F)F)c5n4)C3)C2)c(C(F)(F)F)n1 [Cmpd 596] | < 10 |
| FC(F)Cn1ncc2ncc(N3CCC4(CCCN(c5cncc(C(F)(F)F)c5)C4)CC3)nc21 [Cmpd 215] | < 10 |
| Cc1nc(N2CC3(CCN(c4ccc5c(C)nn(CC(F)F)c5n4)C3)C2)cc(C(F)(F)F)n1 [Cmpd 622] | 10 to 50 |
| COc1nc(C(F)(F)F)ccc1N1CC2(CCN(c3cnc4cnn(CC(F)F)c4n3)CC2)CC1=O [Cmpd 779] | < 10 |
| Cc1ccc(C(=O)N2CC3(CCN(c4cnc5cnn(CC(F)F)c5n4)C3)C2)cc1 [Cmpd 419] | 10 to 50 |
| FC(F)Cn1ncc2ncc(N3CCC4(CN(c5cncc(Cl)c5)C4)C3)nc21 [Cmpd 401] | 10 to 50 |
| FC(F)Cn1ncc2ncc(N3CCC4(CN(c5cccc(OC(F)F)n5)C4)C3)nc21 [Cmpd 406] | 10 to 50 |
| FC(F)(F)c1cc(N2CC3(CCN(c4cncc(-c5nncs5)n4)C3)C2)ccn1 [Cmpd 425] | 50 to 100 |
| Cc1nc(N2CC3(CCN(c4cc5c(cn4)c(C)nn5CC(F)F)CC3)C2)cc(C(F)(F)F)n1 [Cmpd 613] | < 10 |
| Cn1c(N2CCC3(CN(c4ccnc(C(F)(F)F)c4)C3)C2)nc2c(cnn2CC(F)F)c1=O [Cmpd 989] | > 100 |
| FC(F)Cn1ncc2ncc(NC3CCC4(CCN(c5ccc(C(F)(F)F)nc5)CC4)C3)nc21 (stereo not shown) [Cmpd 195] | 10 to 50 |
| O=C1CC2(CN1c1ccc(C(F)(F)F)cn1)C1CC2CN(c2cnc3cnn(CC(F)F)c3n2)C1 (stereo not shown) [Cmpd 802] | 10 to 50 |
| FC(F)Cn1ncc2ncc(N3CCC4(CC3)CC(Nc3ccc(C(F)(F)F)nc3)C4)nc21 [Cmpd 230] | 10 to 50 |
| Cn1c(N2CCC3(CN(c4cnc(C(F)(F)F)nc4)C3)C2)nc2c(cnn2CC(F)(F)F)c1=O [Cmpd 1018] | 10 to 50 |
| Cc1nc(N2CC3(CCN(c4cc5c(cn4)cnn5CC(F)F)C3)C2)cc(C(F)(F)F)n1 [Cmpd 631] | 10 to 50 |
| Cc1nc(N2CCC3(CC2)CN(c2ncc4cnn(CC(F)F)c4n2)C3)cc(C(F)(F)F)n1 [Cmpd 586] | 10 to 50 |
| Cc1nc(N2CCC3(CC2)CN(c2cnc4cnn(CC(F)(F)F)c4n2)C3)cc(C(F)(F)F)n1 [Cmpd 587] | 10 to 50 |
| FC(F)Cn1ncc2ncc(N3CC4(CCN(c5ccc(C(F)(F)F)cn5)C4)C3)nc21 [Compound 182, 2-[1-(2,2-difluoroethyl)-1H-pyrazolo[3,4-b]pyrazin-6-yl]-6-[5-(trifluoromethyl)pyridin-2-yl]-2,6-diazaspiro[3.4]octane] | < 10 |
| FC(F)Cn1ncc2ncc(N3CCC4(CCCN(c5ccnc(C(F)(F)F)c5)C4)CC3)nc21 [Cmpd 225] | < 10 |

Same assay, conditions: activation of GCase, EC50 ranges

| Compound | EC50 [µM] |
| --- | --- |
| FC(F)Cn1ncc2ncc(N3CCC4(CN(c5cnc(C6CC6)nc5)C4)C3)nc21 [Cmpd 560] | 10 to 50 |
| Cc1ncc(N2CCC3(CCN(c4cnc5cnn(CC(F)F)c5n4)CC3)C2)nc1C(F)(F)F [Cmpd 764] | < 10 |
| O=C1CC2(CN1c1ccc(F)c(C(F)(F)F)c1)C1CC2CN(c2cnc3cnn(CC(F)F)c3n2)C1 (stereo not shown) [Cmpd 722] | 10 to 50 |
| CC(C)N1C(=O)N(c2cc(C(F)(F)F)ccn2)C(=O)C12CN(c1cnc3cnn(CC(F)F)c3n1)C2 [Cmpd 300] | 50 to 100 |
| Cc1nc(N2CCC3(CCN(c4ncc5cnn(C6COC6)c5n4)CC3)C2)cc(C(F)(F)F)n1 [Cmpd 573] | > 100 |
| FC(F)(F)c1ccc(N2CCC3(CCN(c4cncc(-c5ncccn5)n4)CC3)C2)cn1 [Cmpd 252] | 10 to 50 |
| O=C1N(c2ccnc(C(F)(F)F)c2)CCC12CN(c1cnc3cnn(CC(F)F)c3n1)C2 [Cmpd 337] | < 10 |
| FC(F)Cn1ncc2ncc(N3CCC4(CCC(Oc5ccnc(C(F)(F)F)c5)C4)CC3)nc21 (stereo not shown) [Cmpd 690] | < 10 |
| FC(F)Cn1ncc2ncc(N3CCCC4(CC(Oc5cccnc5C(F)(F)F)C4)C3)nc21 (stereo not shown) [Compound 4, 6-[1-(2,2-Difluoroethyl)-1H-pyrazolo[3,4-b]pyrazin-6-yl]-2-{[2-(trifluoromethyl)pyridin-3-yl]oxy}-6-azaspiro[3.5]nonane] | < 10 |
| COCCn1ncc2ncc(N3CCC4(CCN(c5cc(C(F)(F)F)ccn5)C4)CC3)nc21 [Cmpd 750] | < 10 |
| Fc1cnc(N2CC3(CCN(c4cnc5cnn(CC(F)F)c5n4)C3)C2)cc1C(F)(F)F [Cmpd 453] | 10 to 50 |
| FC(F)Cn1ncc2ncc(N3CCC4(CCC(Oc5cnccc5C(F)(F)F)C4)CC3)nc21 (stereo not shown) [Cmpd 688] | < 10 |
| FC(F)Cn1ncc2ncc(N3CCCC4(CCN(c5cccnc5C(F)(F)F)C4)C3)nc21 (stereo not shown) [Compound 5, 7-[1-(2,2-difluoroethyl)-1H-pyrazolo[3,4-b]pyrazin-6-yl]-2-[2-(trifluoromethyl)pyridin-3-yl]-2,7-diazaspiro[4.5]decane] | < 10 |
| Cc1cc(N2CC3(CCN(c4ncc5c(C)nn(C6COC6)c5n4)C3)C2)nc(C)n1 [Cmpd 644] | 10 to 50 |
| Cc1nn(CC(F)F)c2nc(N3CCC4(CC3)CN(c3cc(C(F)(F)F)ccn3)C4)ncc12 [Cmpd 491] | 10 to 50 |
| Cc1nc(N2CC3(CCN(c4ncc5cnn(CC(F)F)c5n4)C3)C2)cc(C(F)(F)F)n1 [Cmpd 501] | > 100 |
| CCOc1ccc(CN2CC3(CCN(c4cnc5cnn(CC(F)F)c5n4)CC3)CC2=O)cn1 [Cmpd 361] | 10 to 50 |
| Cc1nn(CC(F)F)c2nc(N3CCC4(CC3)CC(=O)N(c3ccc(C(F)(F)F)nc3)C4)cnc12 [Cmpd 258] | < 10 |
| COc1nn(CC(F)F)c2nc(N3CCC4(CC3)CC(=O)N(c3ccnc(C(F)(F)F)c3)C4)cnc12 [Cmpd 940] | < 10 |
| O=C1N(c2cnccc2C(F)(F)F)CCC12CCN(c1cnc3cnn(CC(F)F)c3n1)CC2 [Cmpd 675] | 10 to 50 |
| CCc1sc(C(F)(F)F)nc1N1CC2(CCN(c3cnc4cnn(CC(F)F)c4n3)CC2)CC1=O [Cmpd 973] | 10 to 50 |
| O=C1CC2(CCN(c3cnc4cnn(CC(F)F)c4n3)CC2)CN1Cc1ccc(OC(F)(F)F)nc1 [Cmpd 918] | 10 to 50 |

| Compound | EC50 [µM] |
| --- | --- |
| O=C(c1ccc(C(F)(F)F)cc1)N1CC2(CCN(c3cnc4cnn(CC(F)F)c4n3)C2)C1 [Cmpd 377] | > 100 |
| CCc1nccn1-c1cncc(N2CCC3(CCN(c4ccc(C(F)(F)F)nc4)C3)CC2)n1 [Cmpd 263] | < 10 |
| Cc1nc(N2CC3(CCN(c4cnc5cnn([C@@H]6CCOC6)c5n4)C3)C2)cc(C(F)(F)F)n1 [Cmpd 1144] | < 10 |
| Cc1cc(N2CC3(CCN(c4cnc5cnn(CC(F)F)c5n4)C3)C2)nc(C(F)F)n1 [Cmpd 1140] | < 10 |
| Cc1cnc(C(F)(F)F)nc1N1CC2(CCN(c3cnc4cnn(CC(F)F)c4n3)C2)C1 [Cmpd 961] | 10 to 50 |
| Cn1c(N2CCC3(CC2)CC(=O)N(c2cc(C(F)(F)F)ccn2)C3)nc2c(cnn2CC(F)F)c1=O [Cmpd 922] | < 10 |
| Cc1nc(N2CC3(CCN(c4cncc(-c5ccnn5CC(F)F)n4)C3)C2)cc(C(F)(F)F)n1 [Cmpd 1119] | 10 to 50 |
| Cc1nnc(-c2cncc(N3CCC4(CN(c5ccnc(C(F)(F)F)c5)C4)C3)n2)s1 [Cmpd 1052] | < 10 |
| Cc1nn(CC(F)F)c2nc(N3CCC4(CC(=O)N(c5ccnc(C(F)(F)F)c5)C4)C3)cnc12 (stereo not shown) [Cmpd 495] | 10 to 50 |
| FC(F)Cn1ncc2ncc(N3CCC4(CCC4Oc4cccnc4C(F)(F)F)CC3)nc21 (stereo not shown) [Compound 87, 7-[1-(2,2-difluoroethyl)-1H-pyrazolo[3,4-b]pyrazin-6-yl]-1-{[2-(trifluoromethyl)pyridin-3-yl]oxy}-7-azaspiro[3.5]nonane] | < 10 |
| Cc1cc(N2CC3(CCN(c4ncc5cnn(CC(C)(F)F)c5n4)C3)C2)nc(C(F)(F)F)n1 [Cmpd 1076] | 10 to 50 |
| COc1ncc(N2CCC3(CCN(c4cnc5cnn(CC(F)F)c5n4)CC3)C2)cn1 [Cmpd 762] | < 10 |
| CCc1ncc(N2CC3(CCN(c4cnc5cnn(CC(F)F)c5n4)C3)C2)cn1 [Cmpd 462] | 10 to 50 |
| O=C(c1ccc(C(F)(F)F)cn1)N1CC2(CCN(c3cnc4cnn(CC(F)F)c4n3)CC2)C1 [Cmpd 328] | 10 to 50 |
| Cc1nc(N2CC[C@@]3(CCN(c4cnc5c(C)nn(C6COC6)c5n4)C3)C2)cc(C(F)(F)F)n1 [Cmpd 1123] | 10 to 50 |
| O=C1CC2(CCN(c3cnc4cnn(CC(F)F)c4n3)C2)CN1c1ccc(C(F)(F)F)cn1 (stereo not shown) [Cmpd 497] | 50 to 100 |
| CCC1N(c2ccc(C(F)(F)F)nc2)C(=O)CC12CCN(c1cnc3cnn(CC(F)F)c3n1)CC2 (stereo not shown) [Cmpd 852] | 10 to 50 |
| O=C1N(c2cnc3cnn(CC(F)F)c3n2)CCC12CCN(c1cnc(C(F)(F)F)cn1)CC2 [Cmpd 772] | > 100 |
| Fc1cnc(N2CCC3(CCN(c4cnc5cnn(CC(F)F)c5n4)CC3)C2)cc1C(F)(F)F [Cmpd 740] | < 10 |
| Cc1cc(N2CC3(CCN(c4cnc5cnn(C6COC6)c5n4)C3)C2)cc(C(F)(F)F)n1 [Cmpd 1040] | 10 to 50 |
| O=C1N(c2cc(C(F)F)ccn2)CCC12CCN(c1cnc3cnn(CC(F)F)c3n1)CC2 [Compound 165, 8-[1-(2,2-difluoroethyl)-1H-pyrazolo[3,4-b]pyrazin-6-yl]-2-[4-(difluoromethyl)pyridin-2-yl]-2,8-diazaspiro[4.5]decan-1-one] | < 10 |
| O=C([C@H]1CCn2c1nccc2=O)N1CCC2(C1)CN(c1ccnc(C(F)(F)F)c1)C2 [Cmpd 1061] | 50 to 100 |
